Assay results from US20200054653A1, “ACEFAPC FOR THE TREATMENT OF ACETYLCHOLINE-DEPENDENT DISEASES” (LIPTHER, priority 2017, published 2020).
Like-named read-outs stand apart in the source and are kept apart here.

Legend:
[1] = target: microbial (Streptomyces chromofuscus) phospholipase D (Streptomyces chromofuscus, UniProt Q8KRU5); experiment: Acellular incubation of AceFaPC with phospholipase D, acetylcholine detected by mass spectrometry; type: biochemical; conditions: Tris-HCl pH 8, one hour at 37° C.
Procedure: Acellular incubation of AceFaPC was performed in the presence of a microbial (Streptomyces chromofuscus) phospholipase D in a Tris-HCl pH 8 (brain pH) buffer for one hour at 37° C. Following incubation, phospholipase D was destroyed by adding ethanol. After centrifugation, the aqueous ethanolic mixture was separated and evaporated to dryness. The residue was dissolved in the mixture 95% acetonitrile/5% ammonium formate and then filtered by centrifugation. Acetylcholine was detected in the solution by mass spectrometry. Acetylcholine was detected on the basis of both its molecular mass (146) and that of its main fragmentation product (87: majority ion corresponding to the radical CH3—COO—CH2—CH2—) (FIG. 2).
In these acellular experiments, two substrates were used considering the lowest unsaturation for acyl in the sn-2 position, namely the oleoyl radical (R2—COO—, FIG. 1): AceOIPC and the highest with the docosahexaenoyl radical: AceDoPC®. For AceOIPC, approximately 5% of the released choline was converted to acetylcholine. For AceDoPC®, this conversion reached 36%. The reasons for this difference are unknown at this stage of the experiment. […]

[2] = system: brain lesions after ischemic stroke; conditions: injected into rats after ischemic stroke; cited from earlier work
[3] = rat, cited from earlier work
[4] = system: reconstituted blood-brain barrier; conditions: compared with non-esterified DHA or PC-DHA; cited from earlier work

Chain of microbial (Streptomyces chromofuscus) phospholipase D (Q8KRU5 47-556): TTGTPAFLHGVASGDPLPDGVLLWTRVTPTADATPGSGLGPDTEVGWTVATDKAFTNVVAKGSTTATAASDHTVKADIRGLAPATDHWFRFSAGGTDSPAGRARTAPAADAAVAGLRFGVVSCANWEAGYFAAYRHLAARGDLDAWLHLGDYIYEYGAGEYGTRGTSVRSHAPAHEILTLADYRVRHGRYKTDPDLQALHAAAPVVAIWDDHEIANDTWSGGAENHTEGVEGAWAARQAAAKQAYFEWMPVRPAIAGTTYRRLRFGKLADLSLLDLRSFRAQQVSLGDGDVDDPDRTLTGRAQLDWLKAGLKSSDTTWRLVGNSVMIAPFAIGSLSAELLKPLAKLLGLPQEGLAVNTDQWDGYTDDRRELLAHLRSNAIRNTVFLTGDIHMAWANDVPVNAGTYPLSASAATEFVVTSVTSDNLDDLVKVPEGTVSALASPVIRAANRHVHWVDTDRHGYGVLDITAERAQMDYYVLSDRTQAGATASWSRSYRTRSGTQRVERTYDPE

Structure (SMILES) | released choline converted to acetylcholine [1] | spread of brain lesions [2] | radioactivity of AceDoPC in brain, % of the total injected ([3]; after 1 hour) | radioactivity of AceDoPC in brain, % of the total injected ([3]; after 24 hours) | radioactivity of AceDoPC in brain, % of the total injected ([3]; after 48 hours) | passage of a reconstituted blood-brain barrier [4]
CCCCCCCCC=CCCCCCCCC(=O)OC(COC(C)=O)COP(=O)([O-])OCC[N+](C)(C)C (stereo not shown) [AceOIPC] | approximately 5% |  |  |  |  | 
CC/C=C\C/C=C\C/C=C\C/C=C\C/C=C\C/C=C\CCC(=O)O[C@H](COC(C)=O)COP(=O)([O-])OCC[N+](C)(C)C [AceDoPC, 1-acetyl,2-docosahexaenoyl-phosphatidylcholine] | 36% | prevented the spread of brain lesions | 80% | 30% | 10% | promoted
